Assay results taken from ChEMBL document CHEMBL5537159, “Discovery and SAR of JTE-151: A Novel RORγ Inhibitor for Clinical Development” (J Med Chem, 2024).
Active and inactive are the calls of the source. The calls are words filed in the database; no cut-off is given here.

How the values were obtained:
Mus musculus [1] = assay: (§1) Anti-inflammatory activity in complete Freund's adjuvant/MOG (35 to 55 residues)/pertussis toxin-induced experimental autoimmune encephalomyelitis C57BL/6 mouse model assessed as reduction in paralysis by measuring reduction in EAE clinical score at 3 to 10 mg/kg, po administered once daily for 17 days and measured on day 18; format: functional, organism-based; conditions: dose 3-10 mg/kg, time 18.0 day
[2] = AUClast in human at 60 mg/kg, po administered as single dose and measured upto 144 hrs; format: ADME, organism-based; conditions: in vivo
[3] = Cmax in human at 1600 […], po administered as single dose and measured upto 144 hrs; format: ADME, organism-based; conditions: in vivo
[4] = Elimination half life in human at 30 mg/kg, po administered as single dose and measured upto 144 hrs; format: ADME, organism-based; conditions: in vivo, read-out: beta t1/2 (converted)
[5] = Inhibition of rat opioid receptor
[6] = molecular target: Voltage-gated L-type calcium channel (Rattus norvegicus, UniProt P22002+Q02485+P27732); assay: Inhibition of rat L-type Ca2+ channel; format: protein assay
[7] = Toxicity in Beagle dog assessed as development-limiting toxicity at 30 to 100 mg/kg, po administered once daily and measured on day 1,14 and 28; format: organism-based, Canis lupus familiaris; conditions: in vivo, 672 h, dose 30-100 mg/kg, time 28 day
[8] = MRT in Beagle dog at 3 mg/kg, po administered as single dose and measured after 24 hrs; format: ADME, organism-based, Canis lupus familiaris; conditions: in vivo
[9] = Oral bioavailability in C57BL/6J mouse at 3 mg/kg administered as single dose and measured after 24 hrs; format: ADME, organism-based; conditions: in vivo
[10] = molecular target: Beta-3 adrenergic receptor (Homo sapiens, UniProt P13945); assay: Inhibition of human adrenergic beta3 receptor
[11] = Selectivity ratio of antagonist activity at human RARalpha to inhibition of RORgamma (unknown origin)
[12] = Selectivity ratio of antagonist activity at human PPARalpha to inhibition of RORgamma (unknown origin)
[13] = Selectivity ratio of antagonist activity at human PPARdelta to inhibition of RORgamma (unknown origin)
[14] = Inhibition of human nicotinic receptor
Cytochrome P450 3A5 [15] = molecular target: T1, Cytochrome P450 3A5 (Homo sapiens, UniProt P20815); assay: Inhibition of CYP3A5 in human liver microsomes using testosterone as substrate; format: ADME, Microsome
[16] = molecular target: Beta-1 adrenergic receptor (Homo sapiens, UniProt P08588); assay: Inhibition of human adrenergic beta1 receptor
[17] = Tmax in human at 60 […], po administered as single dose and measured upto 144 hrs; format: ADME, organism-based; conditions: in vivo
[18] = molecular target: Prostaglandin G/H synthase 1 (Ovis aries, UniProt P05979); assay: Inhibition of ovine cox-1
[19] = molecular target: GABA-A receptor; anion channel; assay: Inhibition of rat GABA-A receptor; format: protein-complex assay
Cannabinoid receptor 1 = Cannabinoid receptor 1 (Homo sapiens, UniProt P21554); assay: Inhibition of human CB1 receptor
[20] = Selectivity ratio of agonist activity at human PPARgamma to inhibition of RORgamma (unknown origin)
[21] = molecular target: Adrenergic receptor alpha-2 (Rattus norvegicus, UniProt P22086+P19328+P22909); assay: Inhibition of rat adrenergic alpha2 receptor; format: protein assay
[22] = molecular target: Adrenergic receptor alpha-1 (Rattus norvegicus, UniProt P15823+P23944+P43140); assay: Inhibition of rat adrenergic alpha1 receptor; format: protein assay
[23] = Inhibition of rat K+ ATP channel
[24] = molecular target: 5-hydroxytryptamine receptor 3A (Homo sapiens, UniProt P46098); assay: Inhibition of human 5-HT3 receptor
Mus musculus [25] = assay: as §1, with “Th17 cell differentiation” for “paralysis”, “number of Th17 cells in spinal cords” for “EAE clinical score”, “18 by flow cytometry analysis” for “18”; format: functional, organism-based; conditions: dose 3-10 mg/kg, time 18.0 day
[26] = Genotoxicity in Salmonella typhimurium TA1537 at 23 to 750 ug in absence of S9 fraction by bacterial reverse mutation test; format: toxicity, Salmonella enterica subsp. enterica serovar Typhimurium; conditions: in vivo; dose 23-750 µg
Cytochrome P450 3A4 = Cytochrome P450 3A4 (Homo sapiens, UniProt P08684); assay: Inhibition of CYP3A4 in human liver microsomes using midazolam as substrate; format: ADME, Microsome
[27] = AUClast in human at 1600 mg/kg, po administered as single dose and measured upto 144 hrs; format: ADME, organism-based; conditions: in vivo
[28] = Selectivity ratio of antagonist activity at mouse GR to inhibition of RORgamma (unknown origin)
[29] = molecular target: Beta-2 adrenergic receptor (Homo sapiens, UniProt P07550); assay: Inhibition of human adrenergic beta2 receptor
[30] = AUCinfinity in Beagle dog at 3 mg/kg, po administered as single dose and measured after 24 hrs; format: ADME, organism-based, Canis lupus familiaris; conditions: in vivo
[31] = Cmax in human at 400 […], po administered as single dose and measured upto 144 hrs; format: ADME, organism-based; conditions: in vivo
Cytochrome P450 1A2 = Cytochrome P450 1A2 (Homo sapiens, UniProt P05177); assay: Inhibition of CYP1A2 in human liver microsomes; format: ADME, Microsome
[32] = Selectivity ratio of antagonist activity at mouse LXRalpha to inhibition of RORgamma (unknown origin)
[33] = Apparent permeability in human Caco-2 cells at 25 umol/L incubated for 2 hrs by LC/MS/MS analysis; format: ADME, cell-based; conditions: dose 25 µmol/L
Cytochrome P450 3A5 [34] = molecular target: T1, Cytochrome P450 3A5; assay: Inhibition of CYP3A5 in human liver microsomes using midazolam as substrate; format: ADME, Microsome
Cytochrome P450 2B6 = Cytochrome P450 2B6 (Homo sapiens, UniProt P20813); assay: Inhibition of CYP2B6 in human liver microsomes; format: ADME, Microsome
[35] = Cmax in human at 600 […], po administered as single dose and measured upto 144 hrs; format: ADME, organism-based; conditions: in vivo
[36] = Toxicity in Sprague-Dawley rat assessed as development-limiting toxicity at 30 to 300 mg/kg, po administered once daily and measured on day 1,14 and 27; format: organism-based; conditions: in vivo, 648 h, dose 30-300 mg/kg, time 27 day
[37] = AUClast in human at 100 […], po administered as single dose and measured upto 144 hrs; format: ADME, organism-based; conditions: in vivo
[38] = Metabolic stability in human liver microsomes assessed as compound remaining at 5 umol/L measured after 60 mins by UPLC/MS analysis; format: ADME, Microsome; conditions: dose 5 µmol/L, read-out: Stability
[39] = Cmax in human at 60 […], po administered as single dose and measured upto 144 hrs; format: ADME, organism-based; conditions: in vivo
[40] = Inhibition of rat Muscarinic receptor
[41] = AUClast in human at 400 mg/kg, po administered as single dose and measured upto 144 hrs; format: ADME, organism-based; conditions: in vivo
[42] = Elimination half life in Beagle dog at 1 mg/kg, iv administered as single dose and measured after 24 hrs; format: ADME, organism-based, Canis lupus familiaris; conditions: in vivo, read-out: beta t1/2 (converted)
[43] = Total body clearance in C57BL/6J mouse at 1 mg/kg, iv administered as single dose and measured after 24 hrs; format: ADME, organism-based; conditions: in vivo
[44] = Genotoxicity in Salmonella typhimurium TA98 at 47 to 1500 ug in presence of S9 fraction by bacterial reverse mutation test; format: toxicity, subcellular, Salmonella enterica subsp. enterica serovar Typhimurium; conditions: dose 47-1500 µg

T1 sequence (P20815 whole entry): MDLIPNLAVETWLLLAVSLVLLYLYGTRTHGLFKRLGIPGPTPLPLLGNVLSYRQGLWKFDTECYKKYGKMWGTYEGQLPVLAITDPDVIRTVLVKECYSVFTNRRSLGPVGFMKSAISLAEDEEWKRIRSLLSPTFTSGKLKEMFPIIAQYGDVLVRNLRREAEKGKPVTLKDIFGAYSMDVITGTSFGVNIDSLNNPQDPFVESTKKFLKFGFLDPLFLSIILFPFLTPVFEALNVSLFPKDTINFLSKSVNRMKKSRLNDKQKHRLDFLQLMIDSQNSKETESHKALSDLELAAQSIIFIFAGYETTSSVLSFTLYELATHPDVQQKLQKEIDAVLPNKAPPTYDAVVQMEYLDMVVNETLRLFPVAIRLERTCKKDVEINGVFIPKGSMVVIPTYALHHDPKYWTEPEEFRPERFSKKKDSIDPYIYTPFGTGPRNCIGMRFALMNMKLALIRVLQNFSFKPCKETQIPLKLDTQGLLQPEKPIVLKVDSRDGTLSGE
Cannabinoid receptor 1, sequence (P21554 whole entry): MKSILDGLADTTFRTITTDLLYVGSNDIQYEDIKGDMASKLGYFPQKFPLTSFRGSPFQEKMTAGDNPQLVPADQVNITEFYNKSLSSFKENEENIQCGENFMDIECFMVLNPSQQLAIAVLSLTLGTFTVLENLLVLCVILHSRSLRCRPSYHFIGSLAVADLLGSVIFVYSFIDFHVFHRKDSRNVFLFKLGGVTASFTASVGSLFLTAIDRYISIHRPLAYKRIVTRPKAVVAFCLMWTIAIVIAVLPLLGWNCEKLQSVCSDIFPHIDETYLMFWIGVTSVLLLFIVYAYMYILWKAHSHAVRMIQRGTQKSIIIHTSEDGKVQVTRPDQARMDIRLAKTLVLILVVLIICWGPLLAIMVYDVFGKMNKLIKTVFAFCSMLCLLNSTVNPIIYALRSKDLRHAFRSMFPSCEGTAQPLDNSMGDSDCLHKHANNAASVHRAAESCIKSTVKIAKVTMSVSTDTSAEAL
Cytochrome P450 2B6, sequence (P20813 whole entry): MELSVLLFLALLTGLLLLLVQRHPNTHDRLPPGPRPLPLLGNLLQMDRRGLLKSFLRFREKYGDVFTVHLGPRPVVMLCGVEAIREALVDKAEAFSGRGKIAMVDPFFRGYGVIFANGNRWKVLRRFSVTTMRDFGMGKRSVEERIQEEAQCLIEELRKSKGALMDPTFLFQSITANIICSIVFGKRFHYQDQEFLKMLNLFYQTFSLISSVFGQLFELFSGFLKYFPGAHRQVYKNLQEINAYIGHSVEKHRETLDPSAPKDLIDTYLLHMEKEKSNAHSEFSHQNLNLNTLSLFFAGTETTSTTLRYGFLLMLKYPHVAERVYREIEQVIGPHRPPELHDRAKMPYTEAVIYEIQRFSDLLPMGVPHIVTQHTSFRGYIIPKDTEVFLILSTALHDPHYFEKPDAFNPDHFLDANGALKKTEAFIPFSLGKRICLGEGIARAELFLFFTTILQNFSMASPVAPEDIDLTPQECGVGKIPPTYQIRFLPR
Beta-2 adrenergic receptor, sequence (P07550 whole entry): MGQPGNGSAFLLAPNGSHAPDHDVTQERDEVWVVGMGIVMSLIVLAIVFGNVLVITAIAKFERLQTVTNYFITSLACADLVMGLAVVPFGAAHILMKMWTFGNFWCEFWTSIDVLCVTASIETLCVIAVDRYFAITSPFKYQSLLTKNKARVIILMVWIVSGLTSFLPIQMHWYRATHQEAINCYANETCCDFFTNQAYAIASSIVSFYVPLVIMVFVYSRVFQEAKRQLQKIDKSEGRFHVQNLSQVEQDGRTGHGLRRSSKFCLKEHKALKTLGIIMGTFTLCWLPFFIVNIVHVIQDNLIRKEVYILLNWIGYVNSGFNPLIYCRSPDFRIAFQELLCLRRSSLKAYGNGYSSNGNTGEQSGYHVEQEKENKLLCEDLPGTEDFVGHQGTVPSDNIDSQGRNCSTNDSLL
Beta-3 adrenergic receptor, sequence (P13945 whole entry): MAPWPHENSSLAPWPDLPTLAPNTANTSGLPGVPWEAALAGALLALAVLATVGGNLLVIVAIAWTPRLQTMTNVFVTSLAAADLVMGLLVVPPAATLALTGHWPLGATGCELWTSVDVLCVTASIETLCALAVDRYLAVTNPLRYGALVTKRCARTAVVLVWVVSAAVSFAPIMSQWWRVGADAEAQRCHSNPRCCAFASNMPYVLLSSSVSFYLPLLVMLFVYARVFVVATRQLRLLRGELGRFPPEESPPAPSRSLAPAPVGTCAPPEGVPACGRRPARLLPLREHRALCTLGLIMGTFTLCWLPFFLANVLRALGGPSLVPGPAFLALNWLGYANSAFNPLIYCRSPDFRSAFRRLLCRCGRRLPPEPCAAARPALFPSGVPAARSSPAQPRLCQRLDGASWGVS
Beta-1 adrenergic receptor, sequence (P08588 whole entry): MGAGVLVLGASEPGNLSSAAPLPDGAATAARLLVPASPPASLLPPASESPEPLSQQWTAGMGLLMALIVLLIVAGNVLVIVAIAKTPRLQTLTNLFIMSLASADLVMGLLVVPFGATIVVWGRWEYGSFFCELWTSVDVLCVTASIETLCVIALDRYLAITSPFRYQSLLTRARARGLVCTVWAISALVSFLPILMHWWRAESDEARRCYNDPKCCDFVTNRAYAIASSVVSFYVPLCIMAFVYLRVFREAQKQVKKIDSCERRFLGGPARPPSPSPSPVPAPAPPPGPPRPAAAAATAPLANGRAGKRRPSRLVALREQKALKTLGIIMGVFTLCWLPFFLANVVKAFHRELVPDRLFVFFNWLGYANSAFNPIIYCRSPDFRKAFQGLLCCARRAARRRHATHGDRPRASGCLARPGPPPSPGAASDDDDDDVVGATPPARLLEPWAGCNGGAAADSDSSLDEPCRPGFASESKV
Cytochrome P450 1A2, sequence (P05177 whole entry): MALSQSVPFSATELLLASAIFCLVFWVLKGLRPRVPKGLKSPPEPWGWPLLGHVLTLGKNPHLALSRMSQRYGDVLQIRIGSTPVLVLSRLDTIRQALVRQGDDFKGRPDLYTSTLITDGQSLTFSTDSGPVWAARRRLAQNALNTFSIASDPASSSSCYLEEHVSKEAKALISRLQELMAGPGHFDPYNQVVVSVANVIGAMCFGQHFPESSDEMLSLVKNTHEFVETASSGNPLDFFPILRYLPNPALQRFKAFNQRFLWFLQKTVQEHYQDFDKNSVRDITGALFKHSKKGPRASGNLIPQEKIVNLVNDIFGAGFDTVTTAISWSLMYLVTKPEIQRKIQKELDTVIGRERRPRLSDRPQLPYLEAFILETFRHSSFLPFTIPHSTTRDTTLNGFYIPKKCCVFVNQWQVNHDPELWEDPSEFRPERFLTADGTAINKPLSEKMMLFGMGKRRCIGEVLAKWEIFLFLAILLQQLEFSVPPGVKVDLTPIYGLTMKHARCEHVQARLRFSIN
5-hydroxytryptamine receptor 3A, sequence (P46098 whole entry): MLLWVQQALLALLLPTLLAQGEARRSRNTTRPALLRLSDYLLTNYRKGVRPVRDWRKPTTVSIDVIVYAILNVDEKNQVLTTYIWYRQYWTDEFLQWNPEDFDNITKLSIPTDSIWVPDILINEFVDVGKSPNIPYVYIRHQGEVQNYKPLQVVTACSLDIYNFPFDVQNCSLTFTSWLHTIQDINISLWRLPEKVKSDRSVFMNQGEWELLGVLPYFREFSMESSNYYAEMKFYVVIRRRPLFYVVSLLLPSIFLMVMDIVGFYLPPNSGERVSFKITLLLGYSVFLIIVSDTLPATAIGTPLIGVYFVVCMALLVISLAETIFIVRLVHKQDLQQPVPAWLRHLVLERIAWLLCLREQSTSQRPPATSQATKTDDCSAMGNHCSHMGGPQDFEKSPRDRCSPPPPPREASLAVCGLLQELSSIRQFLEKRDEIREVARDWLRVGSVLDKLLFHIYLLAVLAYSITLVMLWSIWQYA
Prostaglandin G/H synthase 1, sequence (P05979 whole entry): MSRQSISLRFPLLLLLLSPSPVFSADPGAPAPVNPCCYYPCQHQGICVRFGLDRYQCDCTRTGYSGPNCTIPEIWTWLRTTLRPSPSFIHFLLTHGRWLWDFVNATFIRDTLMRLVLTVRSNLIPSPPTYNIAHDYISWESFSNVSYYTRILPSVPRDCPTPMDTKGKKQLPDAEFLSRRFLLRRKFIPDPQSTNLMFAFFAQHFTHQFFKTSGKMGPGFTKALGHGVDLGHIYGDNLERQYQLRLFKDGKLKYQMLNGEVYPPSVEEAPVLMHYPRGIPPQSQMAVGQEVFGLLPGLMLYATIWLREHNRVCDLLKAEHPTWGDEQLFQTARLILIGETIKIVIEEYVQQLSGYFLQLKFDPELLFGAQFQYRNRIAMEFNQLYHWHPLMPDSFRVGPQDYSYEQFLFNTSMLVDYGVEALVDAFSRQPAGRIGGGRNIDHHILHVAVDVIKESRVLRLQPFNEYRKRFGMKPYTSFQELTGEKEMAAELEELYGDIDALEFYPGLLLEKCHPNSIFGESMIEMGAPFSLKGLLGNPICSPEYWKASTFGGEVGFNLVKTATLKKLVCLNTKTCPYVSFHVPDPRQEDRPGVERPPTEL
Cytochrome P450 3A4, sequence (P08684 whole entry): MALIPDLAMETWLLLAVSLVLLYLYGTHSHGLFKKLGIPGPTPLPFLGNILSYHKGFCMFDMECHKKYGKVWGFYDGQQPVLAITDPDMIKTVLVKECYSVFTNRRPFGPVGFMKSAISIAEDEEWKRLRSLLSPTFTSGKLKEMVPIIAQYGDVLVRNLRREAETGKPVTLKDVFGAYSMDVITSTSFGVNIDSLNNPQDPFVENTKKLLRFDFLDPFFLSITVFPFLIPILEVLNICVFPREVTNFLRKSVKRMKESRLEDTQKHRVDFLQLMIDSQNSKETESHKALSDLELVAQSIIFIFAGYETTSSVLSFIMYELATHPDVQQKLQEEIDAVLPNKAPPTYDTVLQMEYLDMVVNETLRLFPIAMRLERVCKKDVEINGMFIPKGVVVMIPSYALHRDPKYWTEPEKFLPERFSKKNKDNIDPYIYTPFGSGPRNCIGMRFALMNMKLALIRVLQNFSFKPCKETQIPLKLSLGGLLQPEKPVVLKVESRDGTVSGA

Question: Which Activity (Mus musculus [1]) does the source give for Cc1ccc(NC(=O)C[C@H](CCC(=O)O)c2noc([C@H]3C[C@@H](CC(C)(C)C)C3)c2C2CC2)c(Cl)c1 here?
Answer: The Activity was “Active”.

Question: What about the AUC(0-t) at 144 h [2] of the same compound?
Answer: Its AUC(0-t) at 144 h is 11000 ng·h/mL.

Question: What about the Cmax [3] of the same compound?
Answer: The Cmax was 60700 ng/mL.

Question: What about the half-life [4] of the same compound?
Answer: The half-life was 5.63 h.

Question: And the IC50 [5]?
Answer: Its IC50 is over 10 µM.

Question: What about the IC50 [6] of the same compound?
Answer: Its IC50 is over 10 µM.

Question: And the Activity [7]?
Answer: The Activity was “Non-Toxic”.

Question: What about the MRT [8] of the same compound?
Answer: The MRT was 6.6 h.

Question: What about the bioavailability [9] of the same compound?
Answer: Its bioavailability is 98%.

Question: And the IC50 [10]?
Answer: The IC50 was over 10 µM.

Question: And the Selectivity ratio [11]?
Answer: Its Selectivity ratio is over 100.

Question: What about the Selectivity ratio [12] of the same compound?
Answer: The Selectivity ratio was over 100.

Question: And the Selectivity ratio [13]?
Answer: The Selectivity ratio was over 100.

Question: And the IC50 [14]?
Answer: The IC50 was over 10 µM.

Question: What about the IC50 (Cytochrome P450 3A5 [15]) of the same compound?
Answer: The IC50 was over 10 µM.

Question: What about the IC50 [16] of the same compound?
Answer: The IC50 was over 10 µM.

Question: What about the Tmax [17] of the same compound?
Answer: The Tmax was 4 h.

Question: And the IC50 [18]?
Answer: Its IC50 is over 10 µM.

Question: And the IC50 [19]?
Answer: Its IC50 is over 10 µM.

Question: What about the IC50 (Cannabinoid receptor 1) of the same compound?
Answer: Its IC50 is over 10 µM.

Question: What about the Selectivity ratio [20] of the same compound?
Answer: The Selectivity ratio was over 100.

Question: And the IC50 [21]?
Answer: The IC50 was over 10 µM.

Question: And the IC50 [22]?
Answer: Its IC50 is over 10 µM.

Question: What about the IC50 [23] of the same compound?
Answer: Its IC50 is over 10 µM.

Question: And the IC50 [24]?
Answer: Its IC50 is over 10 µM.

Question: What about the Activity (Mus musculus [25]) of the same compound?
Answer: Its Activity is “Active”.

Question: What about the Activity [26] of the same compound?
Answer: Its Activity is “Non-Toxic”.

Question: What about the IC50 (Cytochrome P450 3A4) of the same compound?
Answer: The IC50 was over 10 µM.

Question: What about the AUC(0-t) at 144 h [27] of the same compound?
Answer: Its AUC(0-t) at 144 h is 371000 ng·h/mL.

Question: What about the Selectivity ratio [28] of the same compound?
Answer: The Selectivity ratio was over 100.

Question: And the IC50 [29]?
Answer: Its IC50 is over 10 µM.

Question: And the AUC(0-inf) [30]?
Answer: The AUC(0-inf) was 118 µM·h.

Question: And the Cmax [31]?
Answer: Its Cmax is 17500 ng/mL.

Question: What about the IC50 (Cytochrome P450 1A2) of the same compound?
Answer: Its IC50 is over 10 µM.

Question: What about the Selectivity ratio [32] of the same compound?
Answer: Its Selectivity ratio is over 100.

Question: And the Papp at 2 h, 25 µM [33]?
Answer: The Papp at 2 h, 25 µM was 22.3 ×10⁻⁶ cm/s.

Question: And the IC50 (Cytochrome P450 3A5 [34])?
Answer: The IC50 was over 10 µM.

Question: And the IC50 (Cytochrome P450 2B6)?
Answer: The IC50 was over 10 µM.

Question: What about the Cmax [35] of the same compound?
Answer: Its Cmax is 26400 ng/mL.

Question: And the Activity [36]?
Answer: Its Activity is “Non-Toxic”.

Question: And the AUC(0-t) at 144 h [37]?
Answer: The AUC(0-t) at 144 h was 21200 ng·h/mL.

Question: What about the remaining at 1 h, 5 µM [38] of the same compound?
Answer: The remaining at 1 h, 5 µM was 73%.

Question: What about the Cmax [39] of the same compound?
Answer: Its Cmax is 2260 ng/mL.

Question: What about the IC50 [40] of the same compound?
Answer: Its IC50 is over 10 µM.

Question: What about the AUC(0-t) at 144 h [41] of the same compound?
Answer: The AUC(0-t) at 144 h was 94300 ng·h/mL.

Question: And the half-life [42]?
Answer: Its half-life is 5.5 h.

Question: What about the clearance [43] of the same compound?
Answer: The clearance was 0.5 mL/min/kg.

Question: And the Activity [44]?
Answer: The Activity was “Non-Toxic”.
